Columns and labels:
[1] = target: T1, Polyunsaturated fatty acid 5-lipoxygenase (Homo sapiens) (UniProt P09917); assay: Inhibition of 5LOX (unknown origin) using arachidonic acid as substrate at 10 uM after 5 mins by spectrophotometric analysis
T1 sequence (whole entry): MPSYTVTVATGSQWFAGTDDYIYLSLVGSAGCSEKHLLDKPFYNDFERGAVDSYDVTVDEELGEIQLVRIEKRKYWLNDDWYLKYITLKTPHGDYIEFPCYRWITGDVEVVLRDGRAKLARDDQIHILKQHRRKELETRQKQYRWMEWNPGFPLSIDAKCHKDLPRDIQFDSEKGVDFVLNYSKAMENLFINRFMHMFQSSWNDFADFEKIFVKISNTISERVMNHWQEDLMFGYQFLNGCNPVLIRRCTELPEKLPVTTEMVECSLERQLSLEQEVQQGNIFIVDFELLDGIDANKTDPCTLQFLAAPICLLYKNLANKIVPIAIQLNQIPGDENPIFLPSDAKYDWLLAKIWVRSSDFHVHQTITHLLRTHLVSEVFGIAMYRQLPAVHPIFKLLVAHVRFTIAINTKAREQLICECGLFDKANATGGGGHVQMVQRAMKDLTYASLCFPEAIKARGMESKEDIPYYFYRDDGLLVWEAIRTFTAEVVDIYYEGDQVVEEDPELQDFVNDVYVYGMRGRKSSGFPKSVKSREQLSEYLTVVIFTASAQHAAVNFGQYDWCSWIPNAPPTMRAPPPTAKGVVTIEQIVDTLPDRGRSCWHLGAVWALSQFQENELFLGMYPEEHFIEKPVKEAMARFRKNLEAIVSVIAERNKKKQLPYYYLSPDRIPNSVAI

[2] = target: T1, Polyunsaturated fatty acid 5-lipoxygenase (Homo sapiens); assay: Inhibition of 5LOX (unknown origin) using arachidonic acid as substrate at 0.1 uM after 5 mins by spectrophotometric analysis
[3] = target: T1, Polyunsaturated fatty acid 5-lipoxygenase (Homo sapiens); assay: Inhibition of 5LOX (unknown origin) using arachidonic acid as substrate at 0.01 uM after 5 mins by spectrophotometric analysis
[4] = target: T1, Polyunsaturated fatty acid 5-lipoxygenase (Homo sapiens); assay: Inhibition of 5LOX (unknown origin) using arachidonic acid as substrate at 1 uM after 5 mins by spectrophotometric analysis
[5] = target: T2, Polyunsaturated fatty acid 5-lipoxygenase (Homo sapiens, UniProt P09917); assay: Inhibition of 5LOX (unknown origin) using arachidonic acid as substrate after 5 mins by spectrophotometric analysis
T2 sequence (P09917 whole entry): T1 sequence (whole entry)

Compound | inhibition [1] [%] | inhibition [2] [%] | inhibition [3] [%] | inhibition [4] [%] | IC50 [5] [µM]
Cc1ccc(S(=O)(=O)n2cc(C(=O)C(=O)N3CCCC3)c3ccccc32)cc1 | 95.4 | 27.8 | 0.9 | 63.8 | 0.6
COc1ccc2c(c1)c(C(=O)C(=O)N1CCCC1)cn2C(=O)/C=C/c1ccccc1 | 68.6 | 25.6 | 5.9 | 54.5 | 1
O=C(C(=O)N1CCOCC1)c1cn(C(=O)/C=C/c2ccccc2)c2ccccc12 | 59.2 | 21.1 | 2.5 | 40.7 | 5
COc1ccc2c(c1)c(C(=O)C(=O)N1CCOCC1)cn2OS(=O)(=O)c1ccc(C)cc1 | 59.2 | 22 | 4.7 | 53.8 | 1
O=C(C(=O)N1CCCC1)c1cn(C(=O)c2ccccc2)c2ccccc12 | 59.6 | 17.4 | 6.8 | 54.2 | 1

— ChEMBL document CHEMBL2331414, “N-1, C-3 substituted indoles as 5-LOX inhibitors--in vitro enzyme immunoaasay, mass spectral and molecular docking investigations” (Bioorg Med Chem Lett, 2013)
